Laboratory results as given in patent US6936585B2, “Corticotropin releasing factor 2 receptor agonists” (priority 2002, dated 2005).
pEC50: −log10 of the molar value. Ends that are not written are not given here. Peptide text beside a SMILES is read from it.

How the values were obtained:
[1] = molecular target: T1, CRF2R (Homo sapiens, UniProt Q13324); experiment: CRF2R agonist activation (EC50 / Emax), called comparative CRF binding; format: cell-based; conditions: for Emax: read-out: CRF2R Emax; for pEC50: read-out: CRF2R EC50
T1 sequence (Q13324 1-411): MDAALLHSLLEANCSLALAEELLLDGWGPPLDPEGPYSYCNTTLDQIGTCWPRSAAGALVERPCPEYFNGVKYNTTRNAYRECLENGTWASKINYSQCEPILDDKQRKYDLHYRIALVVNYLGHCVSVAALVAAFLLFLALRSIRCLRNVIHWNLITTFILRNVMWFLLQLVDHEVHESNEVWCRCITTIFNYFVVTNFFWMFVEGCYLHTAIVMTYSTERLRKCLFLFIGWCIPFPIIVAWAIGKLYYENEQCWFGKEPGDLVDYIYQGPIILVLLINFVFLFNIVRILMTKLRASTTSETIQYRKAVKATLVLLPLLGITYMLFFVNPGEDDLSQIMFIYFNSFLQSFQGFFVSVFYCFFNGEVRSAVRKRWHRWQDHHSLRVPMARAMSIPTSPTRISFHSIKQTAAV
Source text: The pharmacological activity and selectivity of the peptides of present invention can be determined using published test procedures. See, e.g, U.S. patent application Ser. No. 09/799,978 (now issued U.S. Pat. No. 6,670,140). Because CRF2R and CRF1R are homologous proteins, it is expected that a certain proportion of agonists for CRF2R will also function as agonists of CRF1R. As discussed above, activation of CRF1R induces activation of the HPA axis since increased corticosteroid production leads to skeletal muscle atrophy. In most cases in which an increase in muscle mass or function is desired, it is not desirable to activate the HPA axis.
Cell-based assays include the steps of contacting cells which express CRF1R or CRF2R with a peptide of the present invention or control and measuring activation of the CRFR by measuring the expression or activity of components of the CRFR signal transduction pathways.
For example, after contact with a peptide of the present invention, lysates of the cells can be prepared and assayed for induction of cAMP. cAMP is induced in response to Gαs activation. Because Gαs is activated by receptors other than CRFR and because a test peptide may be exerting its effect through CRFRs or by another mechanism, two control comparisons are relevant for determining whether the peptide increases levels of cAMP via activation of a CRFR. One control compares the cAMP level of cells contacted with the peptide and the cAMP level of cells contacted with a control compound (i.e., the vehicle in which the peptide is dissolved).
In one example, cAMP induction is measured with the use of DNA constructs containing the cAMP responsive element linked to any of a variety of reporter genes can be introduced into cells expressing CRFRs. Such reporter genes include, but are not limited to, chloramphenicol acetyltransferase (CAT), luciferase, glucuronide synthetase, growth hormone, fluorescent proteins (e.g., Green Fluorescent Protein), or alkaline phosphatase. Following exposure of the cells to the peptide, the level of reporter gene expression can be quantitated to determine the peptide's ability to increase cAMP levels and thus determine the peptide's ability to activate the CRFR.
In addition to using cells expressing full length CRFRs, cells can be engineered which express CRFRs containing the ligand binding domain of the receptor coupled to, or physically modified to contain, reporter elements or to interact with signaling proteins. For example, a wild type CRFR or CRFR fragment can be fused to a G-protein resulting in activation of the fused G-protein upon agonist binding to the CRFR portion of the fusion protein. […] In addition, alternative pathways for induction of the CRE reporter could be eliminated to reduce basal levels.

[2] = molecular target: T2, CRF1R (Homo sapiens, UniProt P34998); experiment: CRF1R agonist activation (EC50 / Emax), called comparative CRF binding; format: cell-based; conditions: for Emax: read-out: CRF1R Emax; for pEC50: read-out: CRF1R EC50
T2 sequence (P34998 24-415): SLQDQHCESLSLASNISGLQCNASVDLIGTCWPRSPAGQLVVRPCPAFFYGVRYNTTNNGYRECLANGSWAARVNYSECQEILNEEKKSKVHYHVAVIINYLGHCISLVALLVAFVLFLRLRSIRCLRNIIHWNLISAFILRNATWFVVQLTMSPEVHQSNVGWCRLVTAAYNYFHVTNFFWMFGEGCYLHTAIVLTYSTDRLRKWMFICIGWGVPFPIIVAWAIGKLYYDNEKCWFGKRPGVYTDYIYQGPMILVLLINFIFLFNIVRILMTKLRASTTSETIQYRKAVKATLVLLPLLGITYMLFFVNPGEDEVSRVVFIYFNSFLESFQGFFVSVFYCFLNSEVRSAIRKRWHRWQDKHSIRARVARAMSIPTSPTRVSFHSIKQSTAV
Outline: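 CRFR-expressing cells + peptide vs vehicle; read-out cAMP (lysate assay) or CRE-linked reporter expression (luciferase, CAT, fluorescent protein, alkaline phosphatase, etc.). Signal compared against vehicle-treated cells.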

Compound	Emax [1]	Emax [2]	pEC50 [1]	pEC50 [2]
CC[C@H](C)[C@H](N)C(=O)N[C@H](C(=O)N[C@@H](CC(C)C)C(=O)N[C@@H](CO)C(=O)N[C@@H](CC(C)C)C(=O)N[C@@H](CC(=O)O)C(=O)N[C@H](C(=O)N1CCC[C@H]1C(=O)N[C@H](C(=O)NCC(=O)N[C@@H](CC(C)C)C(=O)N[C@@H](CC(C)C)C(=O)N[C@@H](CCC(N)=O)C(=O)N[C@H](C(=O)N[C@@H](CC(C)C)C(=O)N[C@@H](CC(C)C)C(=O)N[C@@H](CCC(=O)O)C(=O)N[C@@H](CCC(N)=O)C(=O)N[C@@H](C)C(=O)N[C@@H](CCCNC(=N)N)C(=O)N[C@@H](CCC(N)=O)C(=O)N[C@@H](CCCNC(=N)N)C(=O)N[C@@H](C)C(=O)N[C@@H](C)C(=O)N[C@@H](CCCNC(=N)N)C(=O)N[C@@H](CCC(=O)O)C(=O)N[C@@H](CCC(N)=O)C(=O)N[C@@H](C)C(=O)N[C@H](C(=O)N[C@H](C(=O)N[C@@H](CC(N)=O)C(=O)N[C@@H](C)C(=O)N[C@@H](CCCNC(=N)N)C(=O)N[C@H](C(=O)N[C@@H](CC(C)C)C(=O)N[C@@H](C)C(=O)N[C@@H](CCCNC(=N)N)C(=O)N[C@H](C(N)=O)C(C)C)[C@@H](C)CC)[C@@H](C)O)[C@@H](C)O)[C@@H](C)CC)[C@@H](C)CC)C(C)C)C(C)C [compound 114] (H-IVLSLDVPIGLLQILLEQARQRAAREQATTNARILARV-NH2; N-terminus assumed)	100%	6%		
CC[C@H](C)[C@H](N)C(=O)N[C@H](C(=O)N[C@@H](CC(C)C)C(=O)N[C@@H](CO)C(=O)N[C@@H](CC(C)C)C(=O)N[C@@H](CC(=O)O)C(=O)N[C@H](C(=O)N1CCC[C@H]1C(=O)N[C@H](C(=O)NCC(=O)N[C@@H](CC(C)C)C(=O)N[C@@H](CC(C)C)C(=O)N[C@@H](CCC(N)=O)C(=O)N[C@H](C(=O)N[C@@H](CC(C)C)C(=O)N[C@@H](CC(C)C)C(=O)N[C@@H](CCC(=O)O)C(=O)N[C@@H](CCC(N)=O)C(=O)N[C@@H](C)C(=O)N[C@@H](CCCNC(=N)N)C(=O)N[C@@H](C)C(=O)N[C@@H](CC(=O)O)C(=O)N[C@@H](C)C(=O)N[C@@H](C)C(=O)N[C@@H](CCCNC(=N)N)C(=O)N[C@@H](CCC(=O)O)C(=O)N[C@@H](CCC(N)=O)C(=O)N[C@@H](C)C(=O)N[C@H](C(=O)N[C@H](C(=O)N[C@@H](CC(N)=O)C(=O)N[C@@H](C)C(=O)N[C@@H](CCCNC(=N)N)C(=O)N[C@H](C(=O)N[C@@H](CC(C)C)C(=O)N[C@@H](C)C(=O)N[C@@H](CCCNC(=N)N)C(=O)N[C@H](C(N)=O)C(C)C)[C@@H](C)CC)[C@@H](C)O)[C@@H](C)O)[C@@H](C)CC)[C@@H](C)CC)C(C)C)C(C)C [compound 130] (H-IVLSLDVPIGLLQILLEQARADAAREQATTNARILARV-NH2; N-terminus assumed)	92%	9%	8.07	< 7.00
NDDPPISIDLPLQLLRNMIEMARIENEREQAGLNAKYLAEV-NH2 [compound 270]	19.3%	7.85%		
CC[C@H](C)[C@H](N)C(=O)N[C@H](C(=O)N[C@@H](CC(C)C)C(=O)N[C@@H](CO)C(=O)N[C@@H](CC(C)C)C(=O)N[C@@H](CC(=O)O)C(=O)N[C@H](C(=O)N1CCC[C@H]1C(=O)N[C@H](C(=O)NCC(=O)N[C@@H](CC(C)C)C(=O)N[C@@H](CC(C)C)C(=O)N[C@@H](CCC(N)=O)C(=O)N[C@H](C(=O)N[C@@H](CC(C)C)C(=O)N[C@@H](CC(C)C)C(=O)N[C@@H](CCC(=O)O)C(=O)N[C@@H](CCC(N)=O)C(=O)N[C@@H](CCC(=O)O)C(=O)N[C@@H](CCCNC(=N)N)C(=O)N[C@@H](C)C(=O)N[C@@H](CCC(=O)O)C(=O)N[C@@H](C)C(=O)N[C@@H](C)C(=O)N[C@@H](CCCNC(=N)N)C(=O)N[C@@H](CCC(=O)O)C(=O)N[C@@H](CCC(N)=O)C(=O)N[C@@H](C)C(=O)N[C@H](C(=O)N[C@H](C(=O)N[C@@H](CC(N)=O)C(=O)N[C@@H](C)C(=O)N[C@@H](CCCNC(=N)N)C(=O)N[C@H](C(=O)N[C@@H](CC(C)C)C(=O)N[C@@H](C)C(=O)N[C@@H](CCCNC(=N)N)C(=O)N[C@H](C(N)=O)C(C)C)[C@@H](C)CC)[C@@H](C)O)[C@@H](C)O)[C@@H](C)CC)[C@@H](C)CC)C(C)C)C(C)C [compound 113] (H-IVLSLDVPIGLLQILLEQERAEAAREQATTNARILARV-NH2; N-terminus assumed)	98%	4%	7.95	< 7.00
SQEPPISLDLPTHLLREVLEMTKADQLAQQAHSNRKLLDIA-NH2 [compound 99]	4.35%	4.35%		
HHHHHHIVLSLDVPIGLLQILLEQARARAAREQATTNARILARN-NH2 [compound 296]	65%	4%		
CC[C@H](C)[C@H](N)C(=O)N[C@H](C(=O)N[C@@H](CC(C)C)C(=O)N[C@@H](CO)C(=O)N[C@@H](CC(C)C)C(=O)N[C@@H](CC(=O)O)C(=O)N[C@H](C(=O)N1CCC[C@H]1C(=O)NCC(=O)N1CCC[C@H]1C(=O)N[C@@H](CC(C)C)C(=O)N[C@@H](CC(C)C)C(=O)N[C@@H](CCC(N)=O)C(=O)N[C@H](C(=O)N[C@@H](CC(C)C)C(=O)N[C@@H](CC(C)C)C(=O)N[C@@H](CCC(=O)O)C(=O)N[C@@H](CCC(N)=O)C(=O)N[C@H](C(=O)N[C@@H](CCCCN)C(=O)N[C@@H](CCC(N)=O)C(=O)N[C@@H](CCC(=O)O)C(=O)N[C@@H](C)C(=O)N[C@@H](C)C(=O)N[C@@H](CCCNC(=N)N)C(=O)N[C@@H](CCC(=O)O)C(=O)N[C@@H](CCC(N)=O)C(=O)N[C@@H](C)C(=O)N[C@H](C(=O)N[C@H](C(=O)N[C@@H](CC(N)=O)C(=O)N[C@@H](C)C(=O)N[C@@H](CCCNC(=N)N)C(=O)N[C@H](C(=O)N[C@@H](CC(C)C)C(=O)N[C@@H](C)C(=O)N[C@@H](CCCNC(=N)N)C(=O)N[C@H](C(N)=O)C(C)C)[C@@H](C)CC)[C@@H](C)O)[C@@H](C)O)[C@@H](C)O)[C@@H](C)CC)C(C)C)C(C)C [compound 5] (H-IVLSLDVPGPLLQILLEQTKQEAAREQATTNARILARV-NH2)	12%	9%		
